# Reference: US20250223284A1, “REVERSIBLE DPP1 INHIBITORS AND USES THEREOF” (Insmed Incorporated, priority 2023, published 2025)
# Target: human DPP1 enzyme (Homo sapiens (Human), UniProt P53634)
# Test: Human DPP1 Enzyme IC50 Assay
# Type: biochemical
# Details: recombinant human DPP1 activated with cathepsin L, H-Gly-Arg-AMC substrate, 10 min pre-incubation at 37° C., MES pH 6.0
# Procedure: Recombinant human DPP1 enzyme (R&D Systems; Minneapolis, MN) was first proteolytically processed into its mature form using recombinant human cathepsin L (R&D Systems) in a buffer consisting of 20 mM citric acid pH 4.5, 150 mM NaCl, 1 mM EDTA and 10 mM DTT. Test articles were applied to activated human DPP1 enzyme in Assay Buffer (25 mM MES pH 6.0, 50 mM NaCl, 5 mM DTT) in a total reaction volume of 125 μL. 25 μL of compound in Assay Buffer plus 5% DMSO was first added to 50 μL of activated human DPP1 enzyme at a concentration of 1 ng/μL and allowed to pre-incubate for 10 minutes at 37° C. after which 50 μL of 1000 μM H-Gly-Arg-AMC substrate (Bachem; St. Torrance, CA) was added, giving final substrate concentration of 400 µM and a final DMSO concentration of 1%. Substrate cleavage was measured for 90 minutes at 37° C., with fluorescence at Excitation/Emission 350/450 nm measured every 5 minutes. DPP1 concentration was interpolated based on its activity relative to a standard curve of activated human recombinant DPP1 enzyme. IC50 values for each compound were calculated via the XLFit (IDBS Version 5.3.1.3) Add-On to Microsoft Excel using the four parameter fit equation y={A+[(B−A)]/[1+((C/x)^D)]}, which appears as equation number 205 (4 Parameter Logistic Model or Sigmoidal Dose-Response Model) in XLFit. Default constraints were used for each Parameter. IC50 was defined as the compound concentration at which 50% of enzyme activity was inhibited when compared to the no-compound control.
# Sequence of human DPP1 enzyme (P53634 25-134): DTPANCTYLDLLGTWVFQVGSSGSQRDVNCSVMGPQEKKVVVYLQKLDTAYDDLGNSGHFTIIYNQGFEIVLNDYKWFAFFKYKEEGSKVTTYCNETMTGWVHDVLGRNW
# Sequence of human DPP1 enzyme (P53634 231-394): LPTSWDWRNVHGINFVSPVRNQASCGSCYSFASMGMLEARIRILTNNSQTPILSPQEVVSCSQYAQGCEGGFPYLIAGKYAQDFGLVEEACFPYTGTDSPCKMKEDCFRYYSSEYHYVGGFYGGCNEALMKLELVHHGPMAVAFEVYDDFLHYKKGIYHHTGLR
# Sequence of human DPP1 enzyme (P53634 395-463): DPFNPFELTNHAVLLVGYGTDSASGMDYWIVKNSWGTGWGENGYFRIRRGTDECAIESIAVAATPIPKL
row,IC50 [µM],Compound
1,0.0498,Cn1c(=O)oc2ccc(-c3ccc(C[C@@H](C#N)NC(=O)[C@H]4CCCCCNC4)cc3)cc21
2,0.0141 ± 0.003,"Cn1c(=O)oc2ccc(-c3ccc(C[C@@H](C#N)NC(=O)[C@@H]4CNC[C@@](C)(O)CO4)c(F)c3)cc21 (single isomer, unassigned)"
3,0.0136 ± 0.0021,"Cn1c(=O)oc2ccc(-c3ccc(C[C@@H](C#N)NC(=O)[C@@H]4CNC[C@](C)(O)CO4)c(F)c3)cc21 (single isomer, unassigned)"
4,3.75,"Cn1c(=O)oc2ccc(-c3ccc(C[C@@H](C#N)NC(=O)[C@@H]4CNCC(O)(C(F)(F)F)CO4)cc3)cc21 (single isomer, unassigned)"
5,1.47,"C=C[C@]1(O)CNC[C@@H](C(=O)N[C@H](C#N)Cc2ccc(-c3ccc4oc(=O)n(C)c4c3)cc2)OC1 (single isomer, unassigned)"
6,0.781,"Cn1c(=O)oc2ccc(-c3ccc(C[C@@H](C#N)NC(=O)[C@@H]4CNC[C@](O)(CO)CO4)cc3)cc21 (single isomer, unassigned)"
7,1.02,"C=CCC1(O)CNC[C@@H](C(=O)N[C@H](C#N)Cc2ccc(-c3ccc4oc(=O)n(C)c4c3)cc2)OC1 (single isomer, unassigned)"
8,> 5,"CCC[C@]1(O)CNC[C@@H](C(=O)N[C@H](C#N)Cc2ccc(-c3ccc4oc(=O)n(C)c4c3)cc2)OC1 (single isomer, unassigned)"
9,0.769,"CCC[C@@]1(O)CNC[C@@H](C(=O)N[C@H](C#N)Cc2ccc(-c3ccc4oc(=O)n(C)c4c3)cc2)OC1 (single isomer, unassigned)"
10,> 5,"CC(C)CO[C@@]1(C)CNC[C@@H](C(=O)N[C@H](C#N)Cc2ccc(-c3ccc4oc(=O)n(C)c4c3)cc2)OC1 (single isomer, unassigned)"
11,> 5,"CC(C)CO[C@]1(C)CNC[C@@H](C(=O)N[C@H](C#N)Cc2ccc(-c3ccc4oc(=O)n(C)c4c3)cc2)OC1 (single isomer, unassigned)"
12,> 5,"Cn1c(=O)oc2ccc(-c3ccc(C[C@@H](C#N)NC(=O)[C@@H]4CNCC(O)(Cc5ccccn5)CO4)cc3)cc21 (single isomer, unassigned)"
13,0.234,"Cn1c(=O)oc2ccc(-c3ccc(C[C@@H](C#N)NC(=O)[C@@H]4CNC[C@@](O)(CO)CO4)cc3)cc21 (single isomer, unassigned)"
14,0.729,"Cn1c(=O)oc2ccc(-c3ccc(C[C@@H](C#N)NC(=O)[C@@H]4CNC[C@]5(CCO5)CO4)cc3)cc21 (single isomer, unassigned)"
15,0.0959 ± 0.0044,"Cn1c(=O)oc2ccc(-c3ccc(C[C@@H](C#N)NC(=O)[C@@H]4CNCC5(CCCO5)CO4)cc3)cc21 (single isomer, unassigned)"
16,0.23,"Cn1c(=O)oc2ccc(-c3ccc(C[C@@H](C#N)NC(=O)C4CCCC(O)CNC4)cc3)cc21 (single isomer, unassigned)"
17,0.198,"Cn1c(=O)oc2ccc(-c3ccc(C[C@@H](C#N)NC(=O)[C@@H]4CNC[C@@H](O)CCO4)cc3)cc21 (single isomer, unassigned)"
18,0.0674,"Cn1c(=O)oc2ccc(-c3ccc(C[C@@H](C#N)NC(=O)[C@@H]4CNCC[C@H](O)CO4)cc3)cc21 (single isomer, unassigned)"
19,0.243,"Cn1c(=O)oc2ccc(-c3ccc(C[C@@H](C#N)NC(=O)[C@@H]4CNC[C@@](C)(O)CCO4)cc3)cc21 (single isomer, unassigned)"
20,0.0232 ± 0.002,"Cn1c(=O)oc2ccc(-c3ccc(C[C@@H](C#N)NC(=O)[C@@H]4CNC[C@](C)(O)CCO4)cc3)cc21 (single isomer, unassigned)"
21,> 5,"CCO[C@H]1CCO[C@H](C(=O)N[C@H](C#N)Cc2ccc(-c3ccc4oc(=O)n(C)c4c3)cc2)CNC1 (single isomer, unassigned)"
22,0.457,"CCO[C@H]1CCNC[C@@H](C(=O)N[C@H](C#N)Cc2ccc(-c3ccc4oc(=O)n(C)c4c3)cc2)OC1 (single isomer, unassigned)"
23,2.24,"Cn1c(=O)oc2ccc(-c3ccc(C[C@@H](C#N)NC(=O)[C@@H]4CNCCC(C)(O)CO4)cc3)cc21 (single isomer, unassigned)"

row,IC50 [µM],Compound
1,0.027,"CCO[C@@H]1CCO[C@H](C(=O)N[C@H](C#N)Cc2ccc(-c3ccc4oc(=O)n(C)c4c3)cc2)CNC1 (single isomer, unassigned)"
2,1.14,"CO[C@H]1CCO[C@H](C(=O)N[C@H](C#N)Cc2ccc(-c3ccc4oc(=O)n(C)c4c3)cc2)CNC1 (single isomer, unassigned)"
3,0.0251 ± 0.0031,"Cn1c(=O)oc2ccc(-c3ccc(C[C@@H](C#N)NC(=O)[C@@H]4CNCCCCO4)cc3)cc21 (single isomer, unassigned) [drawing 513]"
4,0.315 ± 0.201,"Cn1c(=O)oc2ccc(-c3ccc(C[C@@H](C#N)NC(=O)[C@@H]4CNC[C@](C)(O)CO4)cc3)cc21 (single isomer, unassigned) [drawing 514]"
5,0.0251,"CC[C@@]1(O)CNC[C@@H](C(=O)N[C@H](C#N)Cc2ccc(-c3ccc4oc(=O)n(C)c4c3)cc2)OC1 (single isomer, unassigned) [drawing 518]"
6,2.74,"CC[C@]1(O)CNC[C@@H](C(=O)N[C@H](C#N)Cc2ccc(-c3ccc4oc(=O)n(C)c4c3)cc2)OC1 (single isomer, unassigned) [drawing 519]"
7,> 5,"CC(C)[C@]1(O)CNC[C@@H](C(=O)N[C@H](C#N)Cc2ccc(-c3ccc4oc(=O)n(C)c4c3)cc2)OC1 (single isomer, unassigned) [drawing 520]"
8,0.0042 ± 0.0008,"Cn1c(=O)oc2ccc(-c3ccc(C[C@@H](C#N)NC(=O)[C@@H]4CNCC5(CCO5)CO4)cc3)cc21 (single isomer, unassigned) [drawing 530]"
9,0.00304 ± 0.0008,"Cn1c(=O)oc2ccc(-c3ccc(C[C@@H](C#N)NC(=O)[C@@H]4CNC[C@@]5(CCO5)CO4)cc3)cc21 (single isomer, unassigned) [drawing 532]"
10,0.0223 ± 0.002,"Cn1c(=O)oc2ccc(-c3ccc(C[C@@H](C#N)NC(=O)[C@@H]4CNCCCCO4)cc3)cc21 (single isomer, unassigned) [drawing 535]"
11,0.0309 ± 0.002,"CN1CC2(C1)OC(=O)c1ccc(-c3ccc(C[C@@H](C#N)NC(=O)[C@@H]4CNCCCCO4)cc3)cc12 (single isomer, unassigned) [drawing 536]"
12,0.00491 ± 0.0009,"CCO[C@@H]1CCNC[C@@H](C(=O)N[C@H](C#N)Cc2ccc(-c3ccc4oc(=O)n(C)c4c3)cc2)OC1 (single isomer, unassigned) [drawing 544]"
13,0.0747,"CO[C@H]1CCNC[C@@H](C(=O)N[C@H](C#N)Cc2ccc(-c3ccc4oc(=O)n(C)c4c3)cc2)OC1 (single isomer, unassigned) [drawing 547]"
14,0.0158 ± 0.0068,"Cn1c(=O)oc2ccc(-c3ccc(C[C@@H](C#N)NC(=O)C4CCCCCNC4)c(F)c3)cc21 (single isomer, unassigned) [drawing 548]"
15,0.14 ± 0.0593,"Cn1c(=O)oc2ccc(-c3ccc(C[C@@H](C#N)NC(=O)[C@H]4CCCCCNC4)c(F)c3)cc21 (single isomer, unassigned) [drawing 549]"
16,> 5,"CCO[C@@]1(C)CNC[C@@H](C(=O)N[C@H](C#N)Cc2ccc(-c3ccc4oc(=O)n(C)c4c3)cc2)OC1 (single isomer, unassigned) [drawing 551]"
17,1.68,"CCO[C@]1(C)CNC[C@@H](C(=O)N[C@H](C#N)Cc2ccc(-c3ccc4oc(=O)n(C)c4c3)cc2)OC1 (single isomer, unassigned) [drawing 552]"
18,0.00682 ± 0.0005,"CO[C@@H]1CCO[C@H](C(=O)N[C@H](C#N)Cc2ccc(-c3ccc4oc(=O)n(C)c4c3)cc2)CNC1 (single isomer, unassigned) [drawing 553]"
19,0.0174 ± 0.006,"CO[C@H]1CCNC[C@@H](C(=O)N[C@H](C#N)Cc2ccc(-c3ccc4oc(=O)n(C)c4c3)cc2)OC1 (single isomer, unassigned) [drawing 554]"
20,0.0726,Cn1c(=O)oc2ccc(-c3ccc(C[C@@H](C#N)NC(=O)C4CCCCCNC4)cc3)cc21 (stereo partly shown) [I-A]
21,0.0856 ± 0.0195,Cn1c(=O)oc2ccc(-c3ccc(C[C@@H](C#N)NC(=O)C4CCCCCNC4)cc3)cc21 (stereo partly shown) [drawing 511]
22,0.0613 ± 0.0099,Cn1c(=O)oc2ccc(-c3ccc(C[C@@H](C#N)NC(=O)C4CCCCCNC4)cc3)cc21 (stereo partly shown) [drawing 512]
23,0.603,Cn1c(=O)oc2ccc(-c3ccc(C[C@@H](C#N)NC(=O)[C@@H]4CCCCCNC4)cc3)cc21 [drawing 550]
